From publication PMC5786306, “An AKAP-Lbc-RhoA interaction inhibitor promotes the translocation of aquaporin-2 to the plasma membrane of renal collecting duct principal cells” (PLoS ONE, 2018)

Assays:
[1] = test system: Gα12- or Gαq-mediated RhoA activation in HEK293 cells; test: Rhotekin pulldown of active RhoA in HEK293 cells; assay type: cell-based, human; settings: 50 μM
Experimental: (A) Full length AKAP-Lbc (AKAP13) and the indicated GEFs were transiently expressed in HEK293 cells. […] (B) Scaff10 inhibits Gα12- but not Gαq-mediated RhoA activation. The indicated Gα12 and Gαq-mutants were transiently co-expressed with AKAP-Lbc and p63RhoGEF in HEK293 cells as indicated. The cells were left untreated or incubated with Scaff10 (50 μM). The fraction of active RhoA was determined using Rhotekin pulldown assays. Shown is one representative out of three experiments. All GEF constructs were in pCMV3a and Myc-tagged (30 ng per transfection). Expression of AKAP-Lbc, LARG and PDZ-RhoGEF is shown in Fig 7 of the main manuscript. […] Lower panel: Corresponding values of fluorescence to upper panel. […] Lower panel: Corresponding values of fluorescence to upper panel. (B) F norm = normalised fluorescence (fluoresence steady state/fluorescence initial state) indicated in ‰. […] The viability of the indicated cells was determined using a CellTiter-Glo®Luminescent Cell Viability Assay (Promega, Wisconsin, USA) according to the manufacturer's instructions. The assay is based on the quantification of ATP as an indicator of metabolically active cells. […] Viability was assessed after 1 and 24 h incubation with Scaff10-8 in the indicated concentrations. An equal volume of CellTiter-Glo Reagent was added, plates were shaken and luminescence monitored over time with the plates held at 22°C. […]

[2] = test system: RhoA activity in IMCD cells; test: Rhotekin pull down of active RhoA in IMCD cells; assay type: cell-based, rat; settings: 30 μM
Experimental: Western blotting for the detection of RhoA and Hsp90 and a Rhotekin pull down for the detection of active, GTP-bound RhoA were adapted from a procedure previously described by us. In brief, IMCD cells were cultured as described, DBcAMP and nystatin were removed on day twelve after seeding by exchange of medium for medium without the compounds. On the following day, Scaff10-8 was added to a final concentration of 30 μM or, as a control, the solvent DMSO (0.3%) for 1 h. Then cells were treated with forskolin (30 μM) for an additional 30 min, and subsequently incubated at 4°C in ice-cold Rhotekin buffer (50 mM Tris, pH 7.2; 1% (w/v) Triton X-100; 0.5% sodium deoxycholate; 500 mM NaCl; 10 mm MgCl2; PhosSTOP EASY (PhosSTOP EASY pack, Roche Diagnostics, Mannheim, DE; #REF04906837001), Complete mini EDTA-free (Complete mini EDTA-free, Roche Diagnostics, Mannheim, DE; #REF0693159001), for 10 min and lysed. Lysates (300–400 μg protein) were incubated with 300 μl of Rhotekin beads as previously described Proteins were eluted from beads with Laemmli buffer and analyzed by Western blotting. […]
Fig 10 Scaff10-8 inhibits activation of RhoA in primary IMCD cells. […] Signals were semiquantitatively analyzed by densitometry. […] Statistically significant differences were determined using one-way ANOVA with posthoc Bonferroni. […]

Row | SMILES | RhoA activation by constitutively active G12 (G12QL) with AKAP-Lbc [1] | RhoA activation through constitutively active Gq (GqRC) [1] | RhoA activity ([2]; 1 h) | effect on RhoA inhibition by forskolin ([2]; 1 h plus forskolin 30 μM, 30 min)
1 | COc1ccc(-c2coc3cc4oc(=O)c(C)c(C)c4cc23)cc1 [Scaff10, 3-(4-Methoxyphenyl)-5,6-dimethyl-furo[3,2-g]chromen-7-one] | abolished this activation | did not affect |  | 
2 | COc1ccc(-c2coc3cc4oc(=O)c(CCC(=O)O)c(C)c4cc23)cc1 [Scaff10-8, 3-[3-(4-Methoxyphenyl)-5-methyl-7-oxo-furo[3,2-g]chromen-6-yl] propanoic acid] |  |  | decreased RhoA activity | did not significantly enhance
